# Laboratory results: article PMC8251916 (Chemistry (Weinheim an Der Bergstrasse, Germany), 2021)
# Legend:
# [1] = tested on: F21T-K+ (human telomeric G-quadruplex, mixed parallel/hybrid); test: FRET melting assay, human telomeric G4 in potassium buffer; assay type: binding; settings: 200 nM DNA, PIPER and 3 not reliable (spectral overlap)
# Procedure: (§1) With the library in hand, we began our investigation into G4 stabilization by conducting a Förster resonance energy transfer (FRET) melting assay to assess DNA stabilization using the procedure outlined by De Cian et. al. ^[13] […] The sequences examined (at 200 nM) were the human telomeric G4 in potassium buffer (F21T‐K^+, mixed parallel/hybrid G4) ^[14] and sodium buffer (F21T‐Na^+, antiparallel G4), ^[15] the c‐Myc promoter G‐quadruplex (FmycT‐K^+, parallel G4), ^[16] a polymorphic G4 found in T. brucei (FEBR1T‐K^+, a mixed G4 topology), ^[6b] and a hairpin duplex DNA sequence (F10T‐K^+). Together, these sequences represent targets for therapeutic intervention to treat parasitic infections, ^[6b] or cancer. ^[1b] The topology of each sequence was confirmed independently via circular dichroism (CD, Figure S1). […]
# (§2) FRET melting assays were performed to assess ligand affinity for duplex and G-quadruplex
# (§3) DNA. Briefly, oligonucleotides of interest were obtained labelled at the 5’ and 3’ ends with FAM (a fluorescence donor) and TAMRA (a fluorescence quencher), respectively. In the folded state, proximity of the donor and quencher result in no observed fluorescence from FAM, since energy is transferred non-radiatively to TAMRA by FRET. As the temperature is raised and the secondary structure denatures, the fluorophores move further apart and the fluorescence signal increases. From the resulting curve, the characteristic melting temperature (Tmax, also referred to as Tm) is defined as the temperature which corresponds to the maxima of the first derivative of the normalised fluorescence signal. The change in melting temperature (ΔTm) induced by the presence of a small molecule ligand provides an indication of the ligand’s ability to stabilise the DNA structure. FRET experiments were performed according to the […]
# (§4) procedure reported by De Cian and co-workers[S3] on a Stratagene MX3005P. The method consisted of holding at 25 °C for 5 min, before heating at 1 °C/min to 96 °C in 1 °C increments, […]
# [2] = tested on: Febr1T-K+ (T. brucei G-quadruplex); test: FRET melting assay, T. brucei G4; assay type: binding; settings: 200 nM DNA, PIPER and 3 not reliable (spectral overlap)
# Procedure: as §1, §2, §3, §4
# [3] = tested on: F10T-K+ (hairpin duplex DNA); test: FRET melting assay, hairpin duplex DNA; assay type: binding; settings: 200 nM DNA, PIPER and 3 not reliable (spectral overlap)
# Procedure: as §1, §2, §3, §4
# [4] = tested on: FmycT-K+ (c-Myc promoter G-quadruplex, parallel); test: FRET melting assay, c-Myc promoter G4; assay type: binding; settings: 200 nM DNA, PIPER and 3 not reliable (spectral overlap)
# Procedure: as §1, §2, §3, §4
# [5] = tested on: F21T-Na+ (human telomeric G-quadruplex, antiparallel); test: FRET melting assay, human telomeric G4 in sodium buffer; assay type: binding; settings: 200 nM DNA, PIPER and 3 not reliable (spectral overlap)
# Procedure: as §1, §2, §3, §4
# MRC5 non-tumoral cells = test: Cytotoxicity, alamarBlue assay, MRC5; assay type: cell-based, human; settings: Homo sapiens, MRC5, 72 h, 72 h incubation, alamarBlue fluorescence; read-out: absolute EC50 MRC5
# Procedure: (§5) Doxorubicin, suramin and miltefosine were used as control compounds.[ ^6b , ^9 ] After incubation with varied concentrations of the compounds for 72 h, cell viability was measured using either an alamarBlue™ assay (for MRC5, HeLa and T. brucei) or MTT assay (for L. major). Absolute EC50 values and selectivity indexes were then calculated from dose‐response curves (Table 2 and S14). […]
# (§6) Cell culture reagents were purchased from Thermo Fisher Scientific (Waltham, MA, USA) and used as-is. The Dulbecco’s Minimal Essential Medium (DMEM) formulation contained either high glucose (4.5 g/L, catalogue number: 10569) or low glucose (1 g/L, catalogue number:
# (§7) 10567). RPMI-1640 was provided without sodium pyruvate and with L-glutamine (catalogue number: 11875). Phosphate Buffered Saline (PBS) contained NaCl (9 g/L), KH2PO4 (144 mg/L) and Na2HPO4-7.H2O (795 mg/L, catalogue number: 10010049). TrypLE Express™ was provided with EDTA (458 mg/L) and without Phenol Red (catalogue number: 12604021).
# (§8) MRC-5 cells (human lung fibroblasts) were grown in monolayer (37 °C, 5 % CO2 and 100 % humidity) in DMEM medium (1 g/L glucose), supplemented with 10% heat-inactivated Fetal Bovine Serum (hiFBS), 2 mM L-glutamine, 100 U / mL penicillin and […]
# (§9) streptomycin. […]
# (§10) Cells were cultured according to ATCC recommendations and were used for the experiments while in the exponential growth phase. […]
# (§11) Cytotoxicity was measured through the alamarBlue® assay (Thermo Fisher Scientific).[S6,S13] Briefly, 5×10^3 MRC-5 or HeLa cells were seeded in 96-wells plates (100 µL / well) in the presence of increasing concentrations of compound. After 72 hrs of incubation at 37 °C, 20 µL of alamarBlue® solution (110 ng / ml) was added to each well and cells were reincubated for 4 hrs at 37 °C. Then, 50 µL of 3 % SDS were added to each well. The plate was incubated at 37 °C for an extra hour and then analysed by fluorescence with an Infinite F200 plate reader (TECAN Austria, GmbH). The excitation wavelength was fixed at 550 nm and the emission wavelength at 590 nm. The results are expressed as the concentration of compound that reduces
# T. brucei = test: Trypanocidal activity, alamarBlue assay; assay type: cell-based; settings: Trypanosoma brucei; 72 h incubation, alamarBlue fluorescence; read-out: absolute EC50 T. brucei
# Procedure: as §5, §6, §7, §8, §9, §10
# hiFBS. Parasites were split every other day and maintained in their experimental growth phase (below 2 million parasites per mL).
# as §11
# [6] = tested on: HeLa cervical carcinoma cells; test: Cytotoxicity, alamarBlue assay, HeLa; assay type: cell-based, human; settings: Homo sapiens, HeLa; 72 h incubation, alamarBlue fluorescence; read-out: absolute EC50 HeLa
# Procedure: as §5, §6, §7
# MRC-5 cells (human lung fibroblasts) were grown in monolayer (37 °C, 5 % CO2 and 100 % humidity) in DMEM medium (1 g/L glucose), supplemented with 10% heat-inactivated Fetal Bovine Serum (hiFBS), 2 mM L-glutamine, 100 U / mL penicillin and […] streptomycin. HeLa (Human cervical carcinoma cell line) cells were maintained at 37 °C and 5 % CO2 in high glucose DMEM (4.5 g / L) supplemented with 10% hiFBS, 100 U / ml penicillin, […] streptomycin, 2 mM L-glutamine and non-essential aminoacids (1X).
# as §10, §11
# L. major = test: Leishmaniacidal activity, MTT assay; assay type: cell-based; settings: Leishmania major; 72 h incubation, MTT absorbance; read-out: absolute EC50 L. major
# Procedure: Doxorubicin, suramin and miltefosine were used as control compounds.[ ^6b , ^9 ] After incubation with varied concentrations of the compounds for 72 h, cell viability was measured using either an alamarBlue™ assay (for MRC5, HeLa and T. brucei) or MTT assay (for L. major). Absolute EC50 values and selectivity indexes were then calculated from dose‐response curves (Table 2 and S14).
# Invitrogen). L. major promastigotes (MHOM/IL/80/Friedlin) were cultured at 28 °C, 5 % CO2 in modified RPMI-1640 medium (Thermo Fisher Scientific, Waltham, MA, USA) with 10% hiFBS. Parasites were split every other day and maintained in their experimental growth phase (below 2 million parasites per mL). […]
# The results are expressed as the concentration of compound that reduces cell growth by 50 % versus untreated control cells (EC50) using GraphPad Prism 7 (GraphPad Software) to fit the data to a sigmoidal curve. Data are presented as the average of three independent measurements all conducted in triplicate conditions. […]
# The leishmaniacidal activity of the compounds on promastigotes L. major (MHOM/IL/80/Friedlin) was carried out as previously described.[S14] Briefly, 4 × 10^6 / mL promastigotes were incubated for 72 h at 28 °C in 96-well plates (50 µL/well) in the presence of increasing concentration of compounds. Cell proliferation was determined using an MTT-based assay (Sigma-Aldrich). Thus, after the 72 h incubation, 10 µL of MTT (5 mg/ml) were added to each well and parasites were reincubated for 4 hrs at 28 °C. Then, 50 µL of 20 % SDS were added to each well. The plate was then incubated at 37°C for 4-16 hrs and analysed using an Infinite F200 plate reader (TECAN Austria, GmbH). The absorbance was measured […]
# at a wavelength of 540 nm and the EC50 was calculated as described above. Data are presented as the average of three independent measurements, all conducted in triplicate conditions. […]
# [7] = 5 μM ligand, 10 mM KCl, 90 mM LiCl, 10 mM Li cacodylate
Compound,ΔTm F21T-K+ ([1]; 1 µM ligand),"ΔTm F21T-K+ [1, 7]",ΔTm F21T-K+ ([1]; 10 µM ligand),ΔTm Febr1T-K+ ([2]; 1 µM ligand),"ΔTm Febr1T-K+ [2, 7]",ΔTm Febr1T-K+ ([2]; 10 µM ligand),ΔTm F10T-K+ ([3]; 1 µM ligand),"ΔTm F10T-K+ [3, 7]",ΔTm FmycT-K+ ([4]; 1 µM ligand),"ΔTm FmycT-K+ ([4]; 5 μM ligand, 1 mM KCl, 99 mM LiCl, 10 mM Li cacodylate)",ΔTm FmycT-K+ ([4]; 10 µM ligand),"ΔTm F21T-Na+ ([5]; 5 μM ligand, 100 mM NaCl, 10 mM Li cacodylate)",ΔTm F21T-Na+ ([5]; 10 µM ligand),EC50 (MRC5 non-tumoral cells),EC50 (T. brucei),EC50 [6],ΔTm F10T-K+ ([3]; 10 µM ligand),EC50 (L. major),ΔTm F21T-Na+ ([5]; 1 µM ligand)
"O=C1c2ccc3c4ccc5c6c(ccc(c7ccc(c2c37)C(=O)N1CCN1CCCCC1)c64)C(=O)N(CCN1CCCCC1)C5=O [PIPER, reference compound]",33 ± 1 °C,37±2 °C,> 40 °C,21 ± 4 °C,33±1 °C,38 ± 7 °C,0 ± 1 °C,1±1 °C,23 ± 1 °C,21±2 °C,26 ± 1 °C,17±2 °C,22 ± 1 °C,,,,,,
CN1CCN(CCCN2C(=O)c3ccc(Oc4ccc5c(c4)C(=O)N(CCCN4CCN(C)CC4)C5=O)cc3C2=O)CC1 [Compound 5],,,-3 ± 1 °C,,,1 ± 1 °C,,,,,-3 ± 1 °C,,-3 ± 1 °C,> 100 µM,67 ± 18 µM,> 100 µM,0 ± 1 °C,> 100 µM,
"COc1cccc2c1C(=O)c1c(O)c3c(c(O)c1C2=O)C[C@@](O)(C(=O)CO)C[C@@H]3O[C@H]1C[C@H](N)[C@H](O)[C@H](C)O1 [Doxorubicin, reference compound]",10 ± 1 °C,,,5 ± 1 °C,,,2 ± 1 °C,,8 ± 1 °C,,,,,,,0.4 ± 0.05 µM,,,0 ± 1 °C
CN1CCN(CCCNC(=O)c2ccc(C(=O)c3ccc(C(=O)NCCCN4CCN(C)CC4)c(C(=O)NCCCN4CCN(C)CC4)c3)cc2C(=O)NCCCN2CCN(C)CC2)CC1 [Compound 10],,,-2 ± 1 °C,,,1 ± 2 °C,,,,,-1 ± 1 °C,,-2 ± 1 °C,> 100 µM,55 ± 3 µM,> 100 µM,0 ± 1 °C,> 100 µM,
"Cc1ccc(C(=O)Nc2ccc(S(=O)(=O)O)c3cc(S(=O)(=O)O)cc(S(=O)(=O)O)c23)cc1NC(=O)c1cccc(NC(=O)Nc2cccc(C(=O)Nc3cc(C(=O)Nc4ccc(S(=O)(=O)O)c5cc(S(=O)(=O)O)cc(S(=O)(=O)O)c45)ccc3C)c2)c1 [Suramin, reference compound]",,,,,,,,,,,,,,,0.044 ± 0.006 µM,,,,
